{"source": "patent US20050180982A1", "about": "“Cadherin-11 expression, an assay and treatment for cellular invasiveness” (THE UNIVERSITY OF BRITISH COLUMBIA, priority 1998, published 2005)", "key": {"[1]": {"test_system": "cad-11 mRNA in extravillous cytotrophoblasts", "test": "Northern blot of cad-11 mRNA in extravillous cytotrophoblasts cultured with TGF-1", "format": "cell-based, human", "procedure": "(§1) First trimester placentae were obtained from elective terminations of pregnancies (8-13 weeks). Extravillous cytotrophoblasts were propagated from first trimester placental explants as described by Graham et al. Biology of Reproduction 46:561-572. The chorionic villi were washed thoroughly in Dulbecco's Modified Eagle's Medium (DMEM; Gibco BRL. Burlington. Ont.) containing 25 mM glucose, 25 mM Hepes and […] gentamicin. The villi were minced finely and plated in 25 cm^2 tissue culture flasks containing DMEM supplemented with antibiotics and 10% heat-inactivated fetal calf serum (FCS). The fragments of chorionic villi were allowed to adhere for […], after which the non-adherent material was removed. The villous explants were cultured for a further 10-14 days, with the culture medium being replaced every 3 days. The propagated extravillous cytotrophoblasts were separated from the villous explants by a trypsin digestion (0.125% trypsin in Ca^2−, Mg^2−-free PBS) and plated in 60 mm culture dishes containing DMEM supplemented with antibiotics and 10% FCS. The purity of the extravillous cytotrophoblast cultures was determined by cytokeratin immunostaining. Only cultures which were 100% positive for cytokeratin immunostaining were used.\nExtravillous cytotrophoblasts grown to 70% confluence in DMEM containing 10% FCS, were washed with PBS and cultured in serum-free DMEM for a further 24 hours. […]\nThe Northern blots were probed with a human cad-11 cDNA probe according to the methods of MacCalman et al. (1992) [supra]. […] The absorbance values obtained for the cad-11 mRNA transcript were normalized relative to the 18 rRNA absorbance value.\nThe results are presented as the mean relative absorbance (±SE) for three independent experiments. Statistical differences between treatments were assessed by the analysis of variance (ANOVA). […] Significant differences between the means were determined using the least significant test."}, "[2]": {"test_system": "cad-11 protein in extravillous cytotrophoblasts", "test": "Western blot of cad-11 protein in extravillous cytotrophoblasts cultured with TGF-1", "format": "cell-based, human", "procedure": "as §1\n(§2) Extravillous cytotrophoblasts grown to 70% confluence in DMEM containing 10% FCS, were washed with PBS and cultured in serum-free DMEM for a further 24 hours. This culture medium was removed and after the cells had been washed twice with PBS, replaced with serum-free DMEM containing porcine TGF-1 (1 pg-10 ng/ml); Sigma Chemical Co., St. Louis. MO) or vehicle ([…]). The cells were fixed for morphological assessment and immunocytochemistry or harvested for Northern or Western blot analysis after 24 hours of culture in the presence or absence of TGF-1.\nFor Western blot analysis, the trophoblasts were incubated in 100 l of cell lysis buffer (Tris-HCl, pH 7.5 containing 0.5% Nonidet P40, 0.5 mM CaCl2 and 1.0 mM PMSF) at 4° C. for 30 minutes on a rocking platform. The cell lysates were centrifuges at 10.000×g for 20 minutes and the supernatant used in the Wester blot analyses. Aliquots were then taken from the samples and subjected to SDS-polyacrylamide gel electrophoresis under reducing conditions, as described by Laemmli (1970) Nature 227:680-685. The stacking gels contained 5% acrylamide and the separating eels were composed of 7.5% acrylamide. […]\nThe results are presented as the mean relative absorbance (±SE) for three independent experiments. Statistical differences between treatments were assessed by the analysis of variance (ANOVA). […] Significant differences between the means were determined using the least significant test. […]"}, "[3]": {"test_system": "extravillous cytotrophoblasts", "test": "Immunocytochemistry for cad-11 and morphology of extravillous cytotrophoblasts cultured with TGF-1", "format": "cell-based, human", "procedure": "as §1, §2\nThe cells were washed twice in PBS and fixed in 0.1% glutaraldehyde/2% formaldehyde at 4° C. for 20 minutes Immunocytochemistry was performed using a mouse monoclonal antibody directed against human cytokeratin filaments 8 and 18 (Becton Dickson. San lose. CA) or a further monoclonal antibody directed against human cad-11 (C11-113E; ICOS Corporation. Bothell, Wash.; ATCC accession no. HB-12515) as described in (MacCalman et al. 1996 [supra] and Getsios et al. 1998 [supra]). Sequential incubations were performed according to the methods of Cartun and Pedersen (1989) J. of Histotechnology 12:273-280 and included 10% normal horse serum for 30 minutes, primary antiserum at 37° C. for 1 hours, secondary biotinylated antibody at 37° C. for 45 minutes, streptavidin-biotinylated horseradish peroxidase complex reagent at 37° C. for 30 minutes, and three five minutes washes in PBS. […]"}, "[4]": {"test_system": "cad-11 mRNA in PC3 prostate cancer cell line", "test": "Semiquantitative PCR of cad-11 mRNA in PC3 cells cultured with TGF-1", "format": "cell-based", "details": "TGF-1 10 pg-1 ng/ml for 24 hours", "text": "(§3) However, low levels of the mRNA transcripts encoding E-cadherin and cad-11 were also detected in these cell lines.\n(§4) The increase in cad-11 was concomitant with a decrease in cad-6 and N-cadherin mRNA levels."}, "[5]": {"test_system": "cad-6 mRNA in PC3 prostate cancer cell line", "test": "PCR of cad-6 mRNA in PC3 cells cultured with TGF-1", "format": "cell-based", "details": "TGF-1 10 pg-1 ng/ml for 24 hours", "text": "as §3, §4"}, "[6]": {"test_system": "N-cadherin mRNA in PC3 prostate cancer cell line", "test": "PCR of N-cadherin mRNA in PC3 cells cultured with TGF-1", "format": "cell-based", "details": "TGF-1 10 pg-1 ng/ml for 24 hours", "text": "as §3, §4"}, "[7]": {"details": "1 or 10 ng/ml of TGF-1, 24 hours, only these concentrations"}, "[8]": {"details": "TGF-1 1 pg-10 ng/ml, 24 hours, dose-dependent manner"}}}
{"substance": "TGF-1: porcine TGF-1 (transforming growth factor), Sigma Chemical Co.", "values": [{"measurement": "cad-11 mRNA levels at 1 or 10 ng/ml", "setting": "[1]; [7]", "result": "significant increase"}, {"measurement": "TGF-1 concentration giving maximum cad-11 mRNA levels", "setting": "[1]; 24 hours", "result": 10, "unit": "ng/mL"}, {"measurement": "cad-11 mRNA levels, dose dependence", "setting": "[1]; [8]", "result": "increased"}, {"measurement": "cad-11 protein expression levels at 1 or 10 ng/ml", "setting": "[2]; [7]", "result": "significant increase"}, {"measurement": "TGF-1 concentration giving maximum cad-11 expression levels", "setting": "[2]; 24 hours", "result": 10, "unit": "ng/mL"}, {"measurement": "cad-11 protein expression levels, dose dependence", "setting": "[2]; [8]", "result": "increase"}, {"measurement": "cad-11 levels by Western blot, dose dependence", "setting": "[2]; porcine TGF-1 10 pg-10 ng/ml", "result": "increased"}, {"measurement": "cellular structures observed", "setting": "[3]; 0.1 ng/ml of TGF-1 for 12 hours", "result": "Large cellular aggregates"}, {"measurement": "large cellular aggregates and multinucleated cells", "setting": "[3]; 10 ng/ml TGF-1, 24 hours", "result": "predominant"}, {"measurement": "number of cells expressing cad-11", "setting": "[3]; 1 or 10 ng/ml of TGF-1, 24 hours, immunostaining", "result": "marked increase"}, {"measurement": "cad-11 immunostaining of cell aggregates", "setting": "[3]; high concentrations of TGF-1", "result": "Intense immunostaining"}, {"measurement": "Cad-11 mRNA levels", "setting": "[4]", "result": "readily detectable"}, {"measurement": "cad-6 mRNA levels", "setting": "[5]", "result": "decrease"}, {"measurement": "N-cadherin mRNA levels", "setting": "[6]", "result": "decrease"}]}
